{"source": "patent US12157730B2", "about": "“Heteroaryl derivative, method for producing same, and pharmaceutical composition comprising same as effective component” (VORONOI INC., priority 2019, dated 2024)"}
{"biological_target": "T1, Ba/F3 cell EGFR Exon20 ins NPH (Homo sapiens, UniProt P00533, INS773NPH)", "T1 construct": "expressed in transfected cells; host or cells: Ba/F3", "assay": "Ba/F3 cell proliferation suppression, EGFR Exon20 ins NPH", "type": "cell-based", "conditions": "GI50 class; Ba/F3 cell line with NPH inserted at Exon20 of EGFR; 72 hours", "protocol": "The following experiment was carried out to evaluate the suppression activity of the compounds according to the present invention against proliferation of Ba/F3 and lung cancer cells which express EGFR mutations.\nOf the cancer cell lines expressing the EGFR gene, A549 was cultured after adding 10% FBS (HyClone) to DMEM (Invitrogen), and RPMI-1640 (Invitrogen) with 10% FBS was used for the other cancer cells. For the Ba/F3 cells, RPMI-1640 with 10% FBS and 5 ng/ml IL-3 (R&D Systems) was used. The transduced Ba/F3 cells were cultured by adding 1 ug/ml puromycin (Invitrogen) to the same medium.\n24 hours before treatment with the compounds, 3000 to 5000 cells were distributed into each well of a white clear bottom 96 well plate (Corning). The compounds were diluted in dimethylsulfoxide (dilution ratio 3:1; 12 concentrations total) and injected 0.5 ul each for a final concentration of 0.3 nM to 50 um. As for measurement of live cells, 72 hours after treatment with the compounds, a CellTiter-Glo luminescent cell-viability reagent (Promega) was used to store the cells at room temperature for 10 minutes, followed by measurement of luminescence using a reader (SynergyNeo, Biotek). Each test was repeated three times.\nThe result was calculated as a cell growth ratio (%) compared to a control. The program GraphPad Prism version 5.0 was used to draw the graphs and calculate the GI50 values."}
{"compound": "C=CC(=O)Nc1cc(Nc2cc(N3OCC[C@@H]3c3cccc(Cl)c3F)ncn2)c(OC)cc1N1CCC(N(C)C)CC1", "note": "[compound 790, N-(5-((6-((R)-3-(3-chloro-2-fluorophenyl)isoxazolidine-2-yl)pyrimidine-4-yl)amino)-2-(4-(dimethylamino)piperidine-1-yl)-4-methoxyphenyl) acrylamide]", "Ba/F3 (NPH) Activity": "A (GI50 < 50 nM)"}
{"compound": "C=CC(=O)Nc1cc(Nc2cc(N3OCC[C@@H]3c3cc(F)cc(F)c3)ncn2)c(OC)cc1N1CCC(N2CCOC[C@H]2C)CC1", "note": "[compound 842, N-(5-((6-((R)-3-(3,5-difluorophenyl)isoxazolidine-2-yl)pyrimidine-4-yl)amino)-4-methoxy-2-(4-((R)-3-methylmorpholino)piperidine-1-yl)phenyl) acrylamide]", "Ba/F3 (NPH) Activity": "A (GI50 < 50 nM)"}
{"compound": "C=CC(=O)Nc1cc(Nc2cc(N3OCC[C@@H]3c3cccc(C#N)c3)ncn2)c(OC)cc1N1CCC(N2CCN(C3CC3)CC2)CC1", "note": "[Example 141, N-(5-((6-((R)-3-(3-cyanophenyl)isoxazolidine-2-yl)pyrimidine-4-yl)amino)-2-(4-(4-cyclopropylpiperazine-1-yl)piperidine-1-yl)-4-methoxyphenyl) acrylamide]", "Ba/F3 (NPH) Activity": "A (GI50 < 50 nM)"}
{"compound": "C=CC(=O)Nc1cc(Nc2cc(N3OCC[C@@H]3c3cc(F)ccc3F)ncn2)c(OC)cc1N1CCN(C2COC2)CC1", "note": "[compound 881, N-(5-((6-((R)-3-(2,5-difluorophenyl)isoxazolidine-2-yl)pyrimidine-4-yl)amino)-4-methoxy-2-(4-(oxetane-3-yl)piperazine-1-yl)phenyl) acrylamide]", "Ba/F3 (NPH) Activity": "A (GI50 < 50 nM)"}
{"compound": "C=CC(=O)Nc1cc(Nc2cc(N3OCC[C@@H]3c3ccc(F)cc3F)ncn2)c(OC)cc1N1CCC(N(C)CCN(C)C)CC1", "note": "[compound 422, N-(5-((6-((R)-3-(2,4-difluorophenyl)isoxazolidine-2-yl)pyrimidine-4-yl)amino)-2-(4-((2-(dimethylamino)ethyl)(methyl)amino)piperidine-1-yl)-4-methoxyphenyl) acrylamide]", "Ba/F3 (NPH) Activity": "A (GI50 < 50 nM)"}
{"compound": "C=CC(=O)Nc1cc(Nc2cc(N3OCC[C@@H]3c3cc(F)ccc3F)ncn2)c(OC)cc1N1CCC(N(C)C)CC1", "note": "[compound 819, N-(5-((6-((R)-3-(2,5-difluorophenyl)isoxazolidine-2-yl)pyrimidine-4-yl)amino)-2-(4-(dimethylamino)piperidine-1-yl)-4-methoxyphenyl) acrylamide]", "Ba/F3 (NPH) Activity": "A (GI50 < 50 nM)"}
{"compound": "C=CC(=O)Nc1cc(Nc2cc(N3OCC[C@@H]3c3cc(F)cc(F)c3)ncn2)c(OC)cc1N1CCC(N2C[C@H]3CCN(C)[C@H]3C2)CC1", "note": "[compound 445, N-(5-((6-((R)-3-(3,5-difluorophenyl)isoxazolidine-2-yl)pyrimidine-4-yl)amino)-4-methoxy-2-(4-((3aR,6aR)-1-methylhexahydropyrrolo [3,4-b]pyrrole-5(1H)-yl)piperidine-1-yl)phenyl)acrylamide]", "Ba/F3 (NPH) Activity": "A (GI50 < 50 nM)"}
{"compound": "C=CC(=O)Nc1cc(Nc2cc(N3OCC[C@@H]3c3cccc(Cl)c3)ncn2)c(OC)cc1N1CCC(N2C[C@H]3C[C@@H]2CO3)CC1", "note": "[compound 472, N-(2-(4-((1R,4R)-2-oxa-5-azabicyclo[2.2.1]heptane-5-yl)piperidine-1-yl)-5-((6-((R)-3-(3-chlorophenyl)isoxazolidine-2-yl)pyrimidine-4-yl)amino)-4-methoxyphenyl) acrylamide]", "Ba/F3 (NPH) Activity": "A (GI50 < 50 nM)"}
{"compound": "C#Cc1cccc([C@H]2CCON2c2cc(Nc3cc(NC(=O)C=C)c(N4CCN(C)CC4)cc3OC)ncn2)c1", "note": "[compound 617, N-(5-((6-((R)-3-(3-ethynylphenyl)isoxazolidine-2-yl)pyrimidine-4-yl)amino)-4-methoxy-2-(4-methylpiperazine-1-yl)phenyl)acrylamide]", "Ba/F3 (NPH) Activity": "A (GI50 < 50 nM)"}
{"compound": "C=CC(=O)Nc1cc(Nc2cc(N3OCC[C@@H]3c3ccc(C)nc3)ncn2)c(OC)cc1N1CCN(CC)CC1", "note": "[Example 42, N-(2-(4-ethylpiperazine-1-yl)-4-methoxy-5-((6((R)-3-(6-methylpyridine-3-yl)isoxazolidine-2-yl)pyrimidine-4-yl)amino)phenyl) acrylamide]", "Ba/F3 (NPH) Activity": "B (50 nM ≤ GI50 < 500 nM)"}
{"compound": "C=CC(=O)Nc1cc(Nc2cc(N3OCC[C@@H]3c3ccc(C)nc3)ncn2)c(OC)cc1N1CCN(C(C)=O)CC1", "note": "[Example 49, N-(2-(4-acetylpiperazine-1-yl)-4-methoxy-5-((6-((R)-3-(6-methylpyridine-3-yl)isoxazolidine-2-yl)pyrimidine-4-yl)amino)phenyl) acrylamide]", "Ba/F3 (NPH) Activity": "C (500 nM ≤ GI50 < 5000 nM)"}
{"compound": "C=CC(=O)Nc1cc(Nc2cc(N3OCC[C@H]3c3c(F)cccc3F)ncn2)c(OC)cc1N1C[C@@H]2CCN(C)[C@@H]2C1", "note": "[compound 899, N-(5-((6-((S)-3-(2,6-difluorophenyl)isoxazolidine-2-yl)pyrimidine-4-yl)amino)-4-methoxy-2-((3aS,6aS)-1-methylhexahydropyrrolo [3,4-b]pyrrole-5(1H)-yl)phenyl) acrylamide]", "Ba/F3 (NPH) Activity": "C (500 nM ≤ GI50 < 5000 nM)"}
{"compound": "C=CC(=O)Nc1cc(Nc2cc(N3OCC[C@@H]3c3cccc(Cl)c3F)ncn2)c(OC)cc1N1CCC(N2CCN(C3CCCC3)CC2)CC1", "note": "[Example 101, N-(5-((6-((R)-3-(3-chloro-2-fluorophenyl)isoxazolidine-2-yl)pyrimidine-4-yl)amino)-2-(4-(4-cyclopentylpiperazine-1-yl)piperidine-1-yl)-4-methoxyphenyl) acrylamide]", "Ba/F3 (NPH) Activity": "A (GI50 < 50 nM)"}
{"compound": "C=CC(=O)Nc1cc(Nc2cc(N3OCC[C@@H]3c3ccc(F)cc3F)ncn2)c(OC)cc1N1C[C@@H]2C[C@H]1CO2", "note": "[compound 324, N-(2-((1S,4S)-2-oxa-5-azabicyclo[2.2.1]heptane-5-yl)-5-((6-((R)-3-(2,4-difluorophenyl)isoxazolidine-2-yl)pyrimidine-4-yl)amino)-4-methoxyphenyl) acrylamide]", "Ba/F3 (NPH) Activity": "A (GI50 < 50 nM)"}
{"compound": "N-(5-((6-((R)-3-(3,4- difluorophenyl) isoxazolidine-2-yl) pyrimidine-4-yl)amino)- 2-(4-((S)-3- (dimethylamino) pyrolidine-1-yl) piperidine-1-yl)-4- methoxyphenyl) acrylamide [compound 500]", "Ba/F3 (NPH) Activity": "A (GI50 < 50 nM)"}
{"compound": "C=CC(=O)Nc1cc(Nc2cc(N3OCC[C@@H]3c3cccc(Cl)c3F)ncn2)c(OC)cc1N1CCC(N2CCN(C3CC3)C[C@H]2C)CC1", "note": "[Example 149, N-(5-((6-((R)-3-(3-chloro-2-fluorophenyl)isoxazolidine-2-yl)pyrimidine-4-yl)amino)-2-(4-((R)-4-cyclopropyl-2-methylpiperazine-1-yl)piperidine-1-yl)-4-methoxyphenyl) acrylamide]", "Ba/F3 (NPH) Activity": "A (GI50 < 50 nM)"}
{"compound": "C=CC(=O)Nc1cc(Nc2cc(N3OCC[C@@H]3c3ccc(Cl)c(Cl)c3)ncn2)c(OC)cc1N1CCN(C2CC2)CC1", "note": "[compound 673, N-(2-(4-cyclopropylpiperazine-1-yl)-5-((6-((R)-3-(3,4-dichlorophenyl)isoxazolidine-2-yl)pyrimidine-4-yl)amino)-4-methoxyphenyl) acrylamide]", "Ba/F3 (NPH) Activity": "A (GI50 < 50 nM)"}
{"compound": "C=CC(=O)Nc1cc(Nc2cc(N3OCC[C@@H]3c3cc(F)ccc3F)ncn2)c(OC)cc1N1C[C@@H](C)N(CC)[C@@H](C)C1", "note": "[compound 878, N-(5-((6-((R)-3-(2,5-difluorophenyl)isoxazolidine-2-yl)pyrimidine-4-yl)amino)-2-((3S,5R)-4-ethyl-3,5-dimethylpiperazine-1-yl)-4-methoxyphenyl) acrylamide]", "Ba/F3 (NPH) Activity": "A (GI50 < 50 nM)"}
{"compound": "C=CC(=O)Nc1cc(Nc2cc(N3OCC[C@@H]3c3cccc(F)c3Cl)ncn2)c(OC)cc1N1CCC(N2C[C@@H]3C[C@H]2CO3)CC1", "note": "[compound 640, N-(2-(4-((1S,4S)-2-oxa-5-azabicyclo[2.2.1]heptane-5-yl)piperidine-1-yl)-5-((6-((R)-3-(2-chloro-3-fluorophenyl)isoxazolidine-2-yl)pyrimidine-4-yl)amino)-4-methoxyphenyl) acrylamide]", "Ba/F3 (NPH) Activity": "A (GI50 < 50 nM)"}
{"compound": "C=CC(=O)Nc1cc(Nc2cc(N3OCC[C@@H]3c3ccc(F)cc3F)ncn2)c(OC)cc1N1CCN(C)CC1", "note": "[compound 326, N-(5-((6-((R)-3-(2,4-difluorophenyl)isoxazolidine-2-yl)pyrimidine-4-yl)amino)-4-methoxy-2-(4-methylpiperazine-1-yl)phenyl)acrylamide]", "Ba/F3 (NPH) Activity": "A (GI50 < 50 nM)"}
{"compound": "C=CC(=O)Nc1cc(Nc2cc(N3OCC[C@@H]3c3ccc(Cl)c(Cl)c3)ncn2)c(OC)cc1N1CCC(N2C[C@H]3C[C@@H]2CO3)CC1", "note": "[compound 690]", "Ba/F3 (NPH) Activity": "A (GI50 < 50 nM)"}
{"compound": "C=CC(=O)Nc1cc(Nc2cc(N3OCC[C@@H]3c3cccc(Cl)c3C)ncn2)c(OC)cc1N1CCC(N2C[C@@H](C)O[C@@H](C)C2)CC1", "note": "[compound 528, N-(5-((6-((R)-3-(3-chloro-2-methylphenyl)isoxazolidine-2-yl)pyrimidine-4-yl)amino)-2-(4-((2S,6R)-2,6-dimethylmorpholino)piperidine-1-yl)-4-methoxyphenyl) acrylamide]", "Ba/F3 (NPH) Activity": "A (GI50 < 50 nM)"}
